Reference: PubChem BioAssay AID248 (DTP/NCI, 2004)
“And” between values parts separate entries of the source, which are not always exact repeats. Equal entries are not always repeated. Inconclusive results and toxic doses are left out. No stated cut-off is given here; in the data, active means T/C of 150% or more; inactive means T/C below 125%.

Test system: L1210 leukemia ip in BDF1 mice, survival T/C
Experiment: NCI In Vivo Anticancer Drug Screen. Data for tumor model L1210 Leukemia (intraperitoneal) in B6D2F1 (BDF1) mice
Conditions: endpoint: mean survival time, higher = longer survival
How it was run: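 Survival endpoint. Drug-treated group vs vehicle group, expressed as T divided by C. Tumor passaged by transplantation.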

[1] = dose: 25.0 mg/kg/injection, schedule: Q04DX002 (ip), vehicle: Klucel (hydroxypropylcellulose) (HPC)
[2] = dose: 100.0 mg/kg/injection, schedule: Q01DX009 (ip), vehicle: Klucel (hydroxypropylcellulose) (HPC)
[3] = dose: 100.0 mg/kg/injection, schedule: Q04DX003 (ip), vehicle: Klucel (hydroxypropylcellulose) (HPC)
[4] = dose: 200.0 mg/kg/injection, schedule: Q01DX009 (ip), vehicle: Klucel (hydroxypropylcellulose) (HPC)
[5] = dose: 200.0 mg/kg/injection, schedule: Q04DX003 (ip), vehicle: Klucel (hydroxypropylcellulose) (HPC)
[6] = dose: 400.0 mg/kg/injection, schedule: Q01DX009 (ip), vehicle: Klucel (hydroxypropylcellulose) (HPC)
[7] = dose: 400.0 mg/kg/injection, schedule: Q04DX003 (ip), vehicle: Klucel (hydroxypropylcellulose) (HPC)
[8] = dose: 50.0 mg/kg/injection, schedule: Q01DX009 (ip), vehicle: saline with Tween-80
[9] = dose: 100.0 mg/kg/injection, schedule: Q01DX009 (ip), vehicle: saline with Tween-80
[10] = dose: 200.0 mg/kg/injection, schedule: Q01DX009 (ip), vehicle: saline with Tween-80
[11] = dose: 400.0 mg/kg/injection, schedule: Q01DX009 (ip), vehicle: saline with Tween-80
[12] = dose: 100.0 mg/kg/injection, schedule: Q01DX009 (ip), vehicle: saline sonified
[13] = dose: 200.0 mg/kg/injection, schedule: Q01DX009 (ip), vehicle: saline sonified
[14] = dose: 400.0 mg/kg/injection, schedule: Q01DX009 (ip), vehicle: saline sonified
[15] = dose: 50.0 mg/kg/injection, schedule: Q01DX009 (ip), vehicle: Klucel (hydroxypropylcellulose) (HPC)
[16] = dose: 100.0 mg/kg/injection, schedule: Q04DX003 (ip), vehicle: saline with Tween-80
[17] = dose: 200.0 mg/kg/injection, schedule: Q04DX003 (ip), vehicle: saline with Tween-80
[18] = dose: 400.0 mg/kg/injection, schedule: Q04DX003 (ip), vehicle: saline with Tween-80

Measured: T/C

S=C(NCCCN1Cc2ccccc2C1)Nc1ccccc1
inactive: dose: 100.0 mg/kg/injection, schedule: Q01DX001 (ip), vehicle: saline 96 % of control | dose: 200.0 mg/kg/injection, schedule: Q01DX001 (ip), vehicle: saline 104 % of control | dose: 400.0 mg/kg/injection, schedule: Q01DX001 (ip), vehicle: saline 96 % of control

O=C(Nc1ncc([N+](=O)[O-])s1)c1ccc(Cl)s1
inactive: dose: 6.25 mg/kg/injection, schedule: Q04DX002 (ip), vehicle: Klucel (hydroxypropylcellulose) (HPC) 94 % of control | dose: 12.5 mg/kg/injection, schedule: Q04DX002 (ip), vehicle: Klucel (hydroxypropylcellulose) (HPC) 91 % of control | [1] 87 % of control

Cc1nc(CN(C)C)c2cnccn12
inactive: dose: 25.0 mg/kg/injection, schedule: Q01DX009 (ip), vehicle: saline 109 % of control | dose: 50.0 mg/kg/injection, schedule: Q01DX009 (ip), vehicle: saline 113 % of control | dose: 100.0 mg/kg/injection, schedule: Q04DX003 (ip), vehicle: saline 98 % of control

COc1ccccc1OC1CCCCC1OS(C)(=O)=O (stereo not given)
inactive: dose: 100.0 mg/kg/injection, schedule: Q01DX001 (ip), vehicle: Klucel (hydroxypropylcellulose) (HPC) 95 % of control | [2] 95 % of control | [3] 102 % of control | dose: 200.0 mg/kg/injection, schedule: Q01DX001 (ip), vehicle: Klucel (hydroxypropylcellulose) (HPC) 105 % of control | [4] 101 % of control | [5] 101 % of control | dose: 400.0 mg/kg/injection, schedule: Q01DX001 (ip), vehicle: Klucel (hydroxypropylcellulose) (HPC) 95 % of control | [6] 95 % of control | [7] 95 % of control

OCC1CC2CCC1CC2 (stereo not given)
inactive: [8] 100 % of control | [9] 105 % of control | [10] 108 % of control

c1ccc(CN=C2c3ccccc3C3(c4ccccc4)C2N3Cc2ccccc2)cc1 (stereo not given)
inactive: [2] 103 % of control | [3] 98 % of control | [4] 103 % of control | [5] 101 % of control | [6] 103 % of control | [7] 97 % of control

O=[N+]([O-])c1cc(C(F)(F)F)cc([N+](=O)[O-])c1N/N=C/c1ccc(F)cc1
inactive: dose: 25.0 mg/kg/injection, schedule: Q01DX009 (ip), vehicle: saline with Tween-80 87 % of control | [8] 94 % of control | [9] 92 % of control and 89 % of control | [11] 86 % of control

CCOC(=O)c1[nH]c(-c2ccccc2)c(C(=O)OCC)c1-c1ccccc1
inactive: [3] 100 % of control | [5] 103 % of control | [7] 115 % of control

CCC(C)(C)c1ccc(OCCOS(=O)(=O)c2ccc(C)cc2)cc1
inactive: [12] 96 % of control | [13] 108 % of control | [14] 97 % of control

Cc1cccc(CN=C(N)CSS(=O)(=O)O)n1
inactive: dose: 25.0 mg/kg/injection, schedule: Q01DX009 (ip), vehicle: Klucel (hydroxypropylcellulose) (HPC) 104 % of control | [1] 92 % of control | [15] 96 % of control | dose: 50.0 mg/kg/injection, schedule: Q04DX002 (ip), vehicle: Klucel (hydroxypropylcellulose) (HPC) 103 % of control | dose: 100.0 mg/kg/injection, schedule: Q04DX002 (ip), vehicle: Klucel (hydroxypropylcellulose) (HPC) 101 % of control and 88 % of control

COc1cccc(OC)c1C1(O)c2ccccc2-c2ccccc21
inactive: [16] 98 % of control | [17] 95 % of control | [18] 95 % of control

N/N=C(\N)c1nn(C2OC(CO)C(O)C2O)c2ncnc(N)c12 (stereo not given)
inactive: dose: 60.0 mg/kg/injection, schedule: Q01DX005 (ip), vehicle: saline 116 % of control | dose: 100.0 mg/kg/injection, schedule: Q01DX005 (ip), vehicle: saline 124 % of control | dose: 200.0 mg/kg/injection, schedule: Q01DX005 (ip), vehicle: saline 113 % of control

CCOc1ccn(CC(=O)N2CCOCC2)c(=O)n1
inactive: dose: 100.0 mg/kg/injection, schedule: Q01DX009 (ip), vehicle: water 93 % of control | dose: 100.0 mg/kg/injection, schedule: Q04DX003 (ip), vehicle: water 105 % of control | dose: 200.0 mg/kg/injection, schedule: Q01DX009 (ip), vehicle: water 95 % of control | dose: 200.0 mg/kg/injection, schedule: Q04DX003 (ip), vehicle: water 100 % of control | dose: 400.0 mg/kg/injection, schedule: Q01DX009 (ip), vehicle: water 98 % of control | dose: 400.0 mg/kg/injection, schedule: Q04DX003 (ip), vehicle: water 95 % of control

CCN(CC)CCCC(C)Nc1cc(N)nc2nc(-c3cc(OC)c(OC)c(OC)c3)cnc12 (stereo not given) (tested in a mixture with another compound)
inactive: dose: 75.0 mg/kg/injection, schedule: Q01DX001 (ip), vehicle: saline 87 % of control

Cc1cccc(C(=O)OCc2ccccc2CN2CCCC2)c1
inactive: dose: 100.0 mg/kg/injection, schedule: Q04DX002 (ip), vehicle: saline 93 % of control | dose: 200.0 mg/kg/injection, schedule: Q04DX002 (ip), vehicle: saline 104 % of control

O=C(O)c1ccccc1SCCO
inactive: dose: 100.0 mg/kg/injection, schedule: Q01DX009 (ip), vehicle: saline 109 % of control | dose: 200.0 mg/kg/injection, schedule: Q01DX009 (ip), vehicle: saline 94 % of control | dose: 400.0 mg/kg/injection, schedule: Q01DX009 (ip), vehicle: saline 95 % of control

Cc1cccc(NC(=O)NC2CCC(CC3CCCCC3)CC2)c1 (stereo not given)
inactive: [2] 106 % of control | [3] 97 % of control | [4] 97 % of control | [5] 101 % of control | [6] 95 % of control | [7] 101 % of control

Nc1cccc(OCCCOc2cccc([N+](=O)[O-])c2)c1
inactive: [15] 106 % of control | [2] 90 % of control | [4] 90 % of control

COc1ccc2c(c1)CCC1CC(=O)C=C21 (stereo not given)
inactive: [12] 113 % of control | [13] 103 % of control | [14] 104 % of control

CN(C/C=C/CN(C)P(=S)(N1CC1)N1CC1)P(=S)(N1CC1)N1CC1
inactive: dose: 100.0 mg/kg/injection, schedule: Q01DX001 (ip), vehicle: carboxymethylcellulose (CMC) 96 % of control | dose: 200.0 mg/kg/injection, schedule: Q01DX001 (ip), vehicle: carboxymethylcellulose (CMC) 93 % of control | dose: 400.0 mg/kg/injection, schedule: Q01DX001 (ip), vehicle: carboxymethylcellulose (CMC) 109 % of control

CC(C)CC(NS(=O)(=O)Cc1ccccc1)C(=O)NN (stereo not given)
inactive: dose: 100.0 mg/kg/injection, schedule: Q01DX001 (ip), vehicle: other 98 % of control | dose: 200.0 mg/kg/injection, schedule: Q01DX001 (ip), vehicle: other 96 % of control | dose: 400.0 mg/kg/injection, schedule: Q01DX001 (ip), vehicle: other 110 % of control

COc1ccc(CC(Cc2ccc(OC)c(OC)c2)NC=O)cc1OC
inactive: [9] 95 % of control | [10] 97 % of control | [11] 100 % of control

O=[N+]([O-])C(CO)(CO)CC(F)(F)F
inactive: dose: 3.13 mg/kg/injection, schedule: Q01DX009 (ip), vehicle: saline 96 % of control | dose: 6.25 mg/kg/injection, schedule: Q01DX009 (ip), vehicle: saline 98 % of control | dose: 12.5 mg/kg/injection, schedule: Q01DX009 (ip), vehicle: saline 102 % of control

CCN(C(=O)C(F)(F)F)C1(c2ccc(Cl)cc2)CCCCC1SSSC1CCCCC1(c1ccc(Cl)cc1)N(CC)C(=O)C(F)(F)F (stereo not given)
inactive: [9] 106 % of control | [16] 87 % of control | [10] 98 % of control | [17] 89 % of control | [11] 108 % of control | [18] 89 % of control
